How the values were obtained:
Assay type in all cases: functional
[1] = system: Mus musculus; assay: Disease modifying capacity in mouse model of transfusion-independent beta-thalassemia intermedia assessed as decrease in relative spleen weight at 20 mg/kg, po BID for 20 days relative to control; design: scale not given: the % may be the effect or the level left
[2] = system: Mus musculus; assay: Disease modifying capacity in mouse model of transfusion-independent beta-thalassemia intermedia assessed as decrease in relative spleen weight at 60 mg/kg, po BID for 20 days relative to control; design: scale not given: the % may be the effect or the level left
[3] = system: Mus musculus; assay: Disease modifying capacity in mouse model of transfusion-independent beta-thalassemia intermedia assessed as prevention of liver [58Fe] loading at 60 mg/kg, po BID for 20 days relative to control
[4] = system: Mus musculus; assay: Disease modifying capacity in mouse model of transfusion-independent beta-thalassemia intermedia assessed as increase in blood erythrocyte counts at 20 mg/kg, po BID for 20 days relative to control
[5] = system: Mus musculus; assay: Decrease in serum iron in mouse model of transfusion-independent beta-thalassemia intermedia at 20 mg/kg, po BID for 20 days relative to control; design: scale not given: the % may be the effect or the level left
[6] = system: Mus musculus; assay: Disease modifying capacity in mouse model of transfusion-independent beta-thalassemia intermedia assessed as increase in hematocrit levels at 20 mg/kg, po BID for 20 days relative to control
[7] = system: Mus musculus; assay: Prevention of hyperferremia in iron overloaded beta2-microglobulin deficient female mouse assessed as reduction in serum iron level at 60 mg/kg, po measured after 3 hrs relative to control; design: scale not given: the % may be the effect or the level left
[8] = system: Rattus norvegicus; assay: Prevention of iron absorption in anemic Wistar rat model of iron absorption assessed as inhibition of increase in serum iron at 10 mg/kg, po pre-dosed 1 hr before ferrous sulfate dosing and measured 3 hours after iron dosing
[9] = system: Mus musculus; assay: Disease modifying capacity in mouse model of transfusion-independent beta-thalassemia intermedia assessed as decrease in leukocyte counts level at 60 mg/kg, po BID for 20 days relative to control; design: scale not given: the % may be the effect or the level left
[10] = system: Mus musculus; assay: Prevention of hyperferremia in iron overloaded beta2-microglobulin deficient male mouse assessed as reduction in serum iron level at 20 mg/kg, po measured after 3 hrs relative to control; design: scale not given: the % may be the effect or the level left
[11] = system: Mus musculus; assay: Induction of hypoferremia in wild type C57BL/6 mouse assessed as decrease in serum iron levels at 10 mg/kg, po measured after 3 hrs post dose; design: scale not given: the % may be the effect or the level left
[12] = system: Mus musculus; assay: Disease modifying capacity in mouse model of transfusion-independent beta-thalassemia intermedia assessed as decrease in leukocyte counts level at 20 mg/kg, po BID for 20 days relative to control; design: scale not given: the % may be the effect or the level left
[13] = system: Mus musculus; assay: Disease modifying capacity in mouse model of transfusion-independent beta-thalassemia intermedia assessed as decrease in bone marrow ROS levels level at 20 mg/kg, po BID for 20 days relative to control; design: scale not given: the % may be the effect or the level left
[14] = system: Mus musculus; assay: Prevention of hyperferremia in iron overloaded beta2-microglobulin deficient male mouse assessed as reduction in serum iron level at 60 mg/kg, po measured after 3 hrs relative to control; design: scale not given: the % may be the effect or the level left
[15] = system: Mus musculus; assay: Disease modifying capacity in mouse model of transfusion-independent beta-thalassemia intermedia assessed as decrease in [58Fe] spleen iron content at 60 mg/kg, po BID for 20 days relative to control; design: scale not given: the % may be the effect or the level left
[16] = system: Rattus norvegicus; assay: Prevention of iron absorption in anemic Wistar rat model of iron absorption assessed as inhibition of increase in serum iron at 3 mg/kg, po pre-dosed 1 hr before ferrous sulfate dosing and measured 3 hours after iron dosing
[17] = system: Mus musculus; assay: Disease modifying capacity in mouse model of transfusion-independent beta-thalassemia intermedia assessed as decrease in serum erythropoietin at 20 mg/kg, po BID for 20 days relative to control; design: scale not given: the % may be the effect or the level left
[18] = system: Mus musculus; assay: Disease modifying capacity in mouse model of transfusion-independent beta-thalassemia intermedia assessed as prevention of liver [58Fe] loading at 20 mg/kg, po BID for 20 days relative to control
[19] = system: Mus musculus; assay: Induction of hypoferremia in wild type C57BL/6 mouse assessed as decrease in serum iron levels at 100 mg/kg, po measured after 3 hrs post dose; design: scale not given: the % may be the effect or the level left
[20] = system: Mus musculus; assay: Prevention of hyperferremia in iron overloaded beta2-microglobulin deficient female mouse assessed as reduction in serum iron level at 20 mg/kg, po measured after 3 hrs relative to control; design: scale not given: the % may be the effect or the level left
[21] = system: Mus musculus; assay: Disease modifying capacity in mouse model of transfusion-independent beta-thalassemia intermedia assessed as decrease in serum erythropoietin at 60 mg/kg, po BID for 20 days relative to control; design: scale not given: the % may be the effect or the level left
[22] = system: Mus musculus; assay: Disease modifying capacity in mouse model of transfusion-independent beta-thalassemia intermedia assessed as increase in hematocrit levels at 60 mg/kg, po BID for 20 days relative to control
[23] = system: Mus musculus; assay: Induction of hypoferremia in wild type C57BL/6 mouse assessed as decrease in serum iron levels at 30 mg/kg, po measured after 3 hrs post dose; design: scale not given: the % may be the effect or the level left
[24] = system: Mus musculus; assay: Disease modifying capacity in mouse model of transfusion-independent beta-thalassemia intermedia assessed as decrease in RDW level at 20 mg/kg, po BID for 20 days relative to control; design: scale not given: the % may be the effect or the level left
[25] = system: Rattus norvegicus; assay: Prevention of iron absorption in anemic Wistar rat model of iron absorption assessed as inhibition of increase in serum iron at 30 mg/kg, po pre-dosed 1 hr before ferrous sulfate dosing and measured 3 hours after iron dosing
[26] = system: Mus musculus; assay: Disease modifying capacity in mouse model of transfusion-independent beta-thalassemia intermedia assessed as increase in blood erythrocyte counts at 60 mg/kg, po BID for 20 days relative to control
[27] = system: Mus musculus; assay: Disease modifying capacity in mouse model of transfusion-independent beta-thalassemia intermedia assessed as decrease in blood reticulocyte counts at 20 mg/kg, po BID for 20 days relative to control; design: scale not given: the % may be the effect or the level left
[28] = system: Mus musculus; assay: Disease modifying capacity in mouse model of transfusion-independent beta-thalassemia intermedia assessed as decrease in RDW level at 60 mg/kg, po BID for 20 days relative to control; design: scale not given: the % may be the effect or the level left
[29] = system: Mus musculus; assay: Disease modifying capacity in mouse model of transfusion-independent beta-thalassemia intermedia assessed as decrease in [58Fe] spleen iron content at 20 mg/kg, po BID for 20 days relative to control; design: scale not given: the % may be the effect or the level left
[30] = system: Mus musculus; assay: Disease modifying capacity in mouse model of transfusion-independent beta-thalassemia intermedia assessed as decrease in bone marrow ROS levels level at 60 mg/kg, po BID for 20 days relative to control; design: scale not given: the % may be the effect or the level left
[31] = system: Mus musculus; assay: Decrease in serum iron in mouse model of transfusion-independent beta-thalassemia intermedia at 60 mg/kg, po BID for 20 days relative to control; design: scale not given: the % may be the effect or the level left

## O=C(NCc1ncccc1F)c1cnc(C2CN(CCc3nc4ccccc4[nH]3)C2)o1
[1]
  Activity: 16%
[2]
  Activity: 47%
[3]
  Activity: 47%
[4]
  Activity: 0%
[5]
  Activity: 50%
[6]
  Activity: 0%
[7]
  Activity: 57%
[8]
  inhibition in vivo at 10 mg/kg: 29%
[9]
  Activity: 55%
[10]
  Activity: 29%
[11]
  Activity: 9%
[12]
  Activity: 29%
[13]
  Activity: 13%
[14]
  Activity: 66%
[15]
  Activity: 40%
[16]
  inhibition in vivo at 3 mg/kg: -3%
[17]
  Activity: 4%
[18]
  Activity: 14%
[19]
  Activity: 50%
[20]
  Activity: 27%
[21]
  Activity: 27%
[22]
  Activity: 15%
[23]
  Activity: 26%
[24]
  Activity: 0%
[25]
  inhibition in vivo at 30 mg/kg: 57%
[26]
  Activity: 33%
[27]
  Activity: 0%
[28]
  Activity: 15%
[29]
  Activity: 13%
[30]
  Activity: 65%
[31]
  Activity: 69%

Reference: ChEMBL document CHEMBL4419169, “Novel Ferroportin Inhibitors” (2018)
